From PubChem BioAssay (NCI)
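Growth conditions: 96-well plates. Treatment: test compound, 48 hours, 5 concentrations. Analysis: linear interpolation between bracketing concentrations; unreached endpoints set to highest concentration. Here, GI50 denotes the concentration required for 50% inhibition of growth. TGI marks complete inhibition of growth.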

Legend:
Experiment in all cases: NCI anticancer screen, dose series, 48 h
786-0 renal = tested on: 786-0 renal
A549 NSCLC = tested on: A549 NSCLC
ACHN renal = tested on: ACHN renal
BT-549 breast = tested on: BT-549 breast
CAKI-1 renal = tested on: CAKI-1 renal
COLO 205 colon = tested on: COLO 205 colon
DU-145 prostate = tested on: DU-145 prostate
EKVX NSCLC = tested on: EKVX NSCLC
HCC-2998 colon = tested on: HCC-2998 colon
HCT-116 colon = tested on: HCT-116 colon
HCT-15 colon = tested on: HCT-15 colon
HOP-62 NSCLC = tested on: HOP-62 NSCLC
HOP-92 NSCLC = tested on: HOP-92 NSCLC
HS 578T breast = tested on: HS 578T breast
HT29 colon = tested on: HT29 colon
IGROV1 ovarian = tested on: IGROV1 ovarian
K-562 leukemia = tested on: K-562 leukemia
M14 melanoma = tested on: M14 melanoma
MCF7 breast = tested on: MCF7 breast
MDA-MB-231 breast = tested on: MDA-MB-231 breast
MDA-MB-435 = tested on: MDA-MB-435
MOLT-4 leukemia = tested on: MOLT-4 leukemia
NCI-H226 lung = tested on: NCI-H226 lung
NCI-H23 lung = tested on: NCI-H23 lung
NCI-H460 lung = tested on: NCI-H460 lung
NCI-H522 lung = tested on: NCI-H522 lung
NCI/ADR-RES ovarian = tested on: NCI/ADR-RES ovarian
OVCAR-4 ovarian = tested on: OVCAR-4 ovarian
OVCAR-5 ovarian = tested on: OVCAR-5 ovarian
OVCAR-8 ovarian = tested on: OVCAR-8 ovarian
PC-3 prostate = tested on: PC-3 prostate
RPMI-8226 leukemia = tested on: RPMI-8226 leukemia
SF-268 CNS = tested on: SF-268 CNS
SF-295 CNS = tested on: SF-295 CNS
SF-539 CNS = tested on: SF-539 CNS
SK-MEL-2 melanoma = tested on: SK-MEL-2 melanoma
SK-MEL-28 melanoma = tested on: SK-MEL-28 melanoma
SK-MEL-5 melanoma = tested on: SK-MEL-5 melanoma
SK-OV-3 ovarian = tested on: SK-OV-3 ovarian
SN12C renal = tested on: SN12C renal
SNB-19 CNS = tested on: SNB-19 CNS
SNB-75 CNS = tested on: SNB-75 CNS
SW-620 colon = tested on: SW-620 colon
T-47D breast = tested on: T-47D breast
TK-10 renal = tested on: TK-10 renal
U251 CNS = tested on: U251 CNS
UACC-257 melanoma = tested on: UACC-257 melanoma
UACC-62 melanoma = tested on: UACC-62 melanoma
UO-31 renal = tested on: UO-31 renal

N#Cc1cccc(C(=O)Nc2cccc(NC(=O)c3cccc(C#N)c3)c2)c1
GI50 (786-0 renal): 33.4 µM | TGI (786-0 renal): > 100 µM | GI50 (A549 NSCLC): 74.3 µM | TGI (A549 NSCLC): > 100 µM | GI50 (ACHN renal): > 100 µM | TGI (ACHN renal): > 100 µM | GI50 (BT-549 breast): > 100 µM | TGI (BT-549 breast): > 100 µM | GI50 (CAKI-1 renal): 6.95 µM | TGI (CAKI-1 renal): > 100 µM | GI50 (COLO 205 colon): > 100 µM | TGI (COLO 205 colon): > 100 µM | GI50 (DU-145 prostate): 66.6 µM | TGI (DU-145 prostate): > 100 µM | GI50 (EKVX NSCLC): > 100 µM | TGI (EKVX NSCLC): > 100 µM | GI50 (HCC-2998 colon): > 100 µM | TGI (HCC-2998 colon): > 100 µM | GI50 (HCT-116 colon): 78.1 µM | TGI (HCT-116 colon): > 100 µM | GI50 (HCT-15 colon): 73.9 µM | TGI (HCT-15 colon): > 100 µM | GI50 (HOP-62 NSCLC): 33.5 µM | TGI (HOP-62 NSCLC): 74 µM | GI50 (HOP-92 NSCLC): 60.4 µM | TGI (HOP-92 NSCLC): > 100 µM | GI50 (HS 578T breast): 39 µM | TGI (HS 578T breast): > 100 µM | GI50 (HT29 colon): > 100 µM | TGI (HT29 colon): > 100 µM | GI50 (IGROV1 ovarian): > 100 µM | TGI (IGROV1 ovarian): > 100 µM | GI50 (K-562 leukemia): > 100 µM | TGI (K-562 leukemia): > 100 µM | GI50 (M14 melanoma): > 100 µM | TGI (M14 melanoma): > 100 µM | GI50 (MCF7 breast): 90.9 µM | TGI (MCF7 breast): > 100 µM | GI50 (MDA-MB-231 breast): 75.9 µM | TGI (MDA-MB-231 breast): > 100 µM | GI50 (MDA-MB-435): > 100 µM | TGI (MDA-MB-435): > 100 µM | GI50 (MOLT-4 leukemia): 86.5 µM | TGI (MOLT-4 leukemia): > 100 µM | GI50 (NCI-H226 lung): 49.1 µM | TGI (NCI-H226 lung): > 100 µM | GI50 (NCI-H23 lung): 89 µM | TGI (NCI-H23 lung): > 100 µM | GI50 (NCI-H460 lung): 42.8 µM | TGI (NCI-H460 lung): > 100 µM | GI50 (NCI-H522 lung): > 100 µM | TGI (NCI-H522 lung): > 100 µM | GI50 (NCI/ADR-RES ovarian): 95.7 µM | TGI (NCI/ADR-RES ovarian): > 100 µM | GI50 (OVCAR-4 ovarian): > 100 µM | TGI (OVCAR-4 ovarian): > 100 µM | GI50 (OVCAR-5 ovarian): > 100 µM | TGI (OVCAR-5 ovarian): > 100 µM | GI50 (OVCAR-8 ovarian): 47.3 µM | TGI (OVCAR-8 ovarian): > 100 µM | GI50 (PC-3 prostate): 77.6 µM | TGI (PC-3 prostate): > 100 µM | GI50 (RPMI-8226 leukemia): 52 µM | TGI (RPMI-8226 leukemia): > 100 µM | GI50 (SF-268 CNS): 17 µM | TGI (SF-268 CNS): 56 µM | GI50 (SF-295 CNS): > 100 µM | TGI (SF-295 CNS): > 100 µM | GI50 (SF-539 CNS): 57.7 µM | TGI (SF-539 CNS): > 100 µM | GI50 (SK-MEL-2 melanoma): > 100 µM | TGI (SK-MEL-2 melanoma): > 100 µM | GI50 (SK-MEL-28 melanoma): > 100 µM | TGI (SK-MEL-28 melanoma): > 100 µM | GI50 (SK-MEL-5 melanoma): 29.2 µM | TGI (SK-MEL-5 melanoma): > 100 µM | GI50 (SK-OV-3 ovarian): > 100 µM | TGI (SK-OV-3 ovarian): > 100 µM | GI50 (SN12C renal): 34.1 µM | TGI (SN12C renal): > 100 µM | GI50 (SNB-19 CNS): > 100 µM | TGI (SNB-19 CNS): > 100 µM | GI50 (SNB-75 CNS): > 100 µM | TGI (SNB-75 CNS): > 100 µM | GI50 (SW-620 colon): > 100 µM | TGI (SW-620 colon): > 100 µM | GI50 (T-47D breast): > 100 µM | TGI (T-47D breast): > 100 µM | GI50 (TK-10 renal): 52.5 µM | TGI (TK-10 renal): > 100 µM | GI50 (U251 CNS): 69.3 µM | TGI (U251 CNS): > 100 µM | GI50 (UACC-257 melanoma): > 100 µM | TGI (UACC-257 melanoma): > 100 µM | GI50 (UACC-62 melanoma): 34.1 µM | TGI (UACC-62 melanoma): > 100 µM | GI50 (UO-31 renal): > 100 µM | TGI (UO-31 renal): > 100 µM
